Results on 10 molecules are retold here after PubChem BioAssay (NCI).

Some test systems named below: M14 melanoma; SNB-75 CNS; TK-10 renal; SF-295 CNS; BT-549 breast; CAKI-1 renal; UACC-257 melanoma; COLO 205 colon; KM12 colon; DU-145 prostate.
Common to all, as to test: DTP human tumour cell line panel, 48 h

Several values for one entry are separate records, joined by “and”; a condition that tells them apart may be missing. Equal values may be shown once.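 Protocol summary: plate cells (96-well), add compound at 5 concentrations, incubate 48 h, interpolate endpoints linearly. GI50 is the concentration that inhibits growth by half. Definition used: TGI = concentration required for complete inhibition of growth.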

Turning to `CC1=C(SCCC(=O)OC(C[Se]C2=C(C)C(=O)c3ccccc3C2=O)C(=O)NCCCCCC(=O)OCc2ccccc2)C(=O)c2ccccc2C1=O` (stereo not given), the GI50 is 2.01 µM with M14 melanoma; 11.5 µM in the assay on SNB-75 CNS; 13.8 µM in the assay with TK-10 renal; 2.49 µM in the assay with SF-295 CNS; 3.81 µM in the assay with BT-549 breast; 6.89 µM in the assay with CAKI-1 renal. For the same molecule, the GI50 is 3.46 µM in the assay with UACC-257 melanoma, 7.95 µM in the assay with COLO 205 colon and 1.4 µM in the assay on KM12 colon. In addition, the TGI stood at 4.22 µM with M14 melanoma; 23.8 µM with SNB-75 CNS; 27.2 µM with TK-10 renal; 8.7 µM with SF-295 CNS; 12.9 µM in the assay on BT-549 breast; 21.3 µM in the assay with CAKI-1 renal. For the same molecule, the TGI in the assay on UACC-257 melanoma was determined as 10.1 µM; in the assay with COLO 205 colon, 22.6 µM; in the assay with KM12 colon, 4.07 µM.

`O=C(/C=C\c1ccc([N+](=O)[O-])cc1)c1ccccc(=O)c1O`: the TGI stood at 6.5 µM in the assay on M14 melanoma; 4.75 µM in the assay on SNB-75 CNS; 8.91 µM in the assay on TK-10 renal; 14.7 µM in the assay on SF-295 CNS; 6.17 µM with BT-549 breast; 4.61 µM with CAKI-1 renal. For the same molecule, the TGI was found to be 7.85 µM in the assay with UACC-257 melanoma, 9.44 µM with DU-145 prostate, 0.967 µM in the assay with COLO 205 colon and 2.87 µM in the assay on KM12 colon.

For the molecule `CC(C)(C)C1CCC2c3c([nH]c4ccccc34)C3C(=O)N(c4ccc(Cl)cc4)C(=O)C3C2C1` (stereo not given), the GI50 in the assay with M14 melanoma is 54.3 µM and > 10 µM; in the assay with SNB-75 CNS, > 100 µM; in the assay on TK-10 renal it was > 100 µM; in the assay on UACC-257 melanoma, > 100 µM; in the assay on DU-145 prostate, > 100 µM; with COLO 205 colon, 49.9 µM and > 10 µM. Also, the GI50 in the assay with KM12 colon is 44.3 µM and > 10 µM. In addition, the TGI in the assay with M14 melanoma, in the assay on SNB-75 CNS, in the assay with TK-10 renal, with BT-549 breast, in the assay on UACC-257 melanoma and in the assay with DU-145 prostate was > 100 µM each time. Further, the TGI with COLO 205 colon and in the assay with KM12 colon was > 100 µM each time.

In the case of `CCCCCCCCCCCCCCCCCCn1cc[n+](C)c1`, the 50% growth inhibitory concentration (GI50) is 0.47 µM and 0.26 µM with TK-10 renal; 1.17 µM in the assay on BT-549 breast; 1.53 µM in the assay with UACC-257 melanoma; 0.801 µM and 0.87 µM in the assay on DU-145 prostate; 0.35 µM in the assay with COLO 205 colon; 0.275 µM in the assay on KM12 colon. Further, the TGI in the assay with TK-10 renal was 1.97 µM and 1.44 µM; in the assay with BT-549 breast it was 2.71 µM; in the assay on UACC-257 melanoma, 3.91 µM; in the assay with DU-145 prostate, 2.06 µM and 2.1 µM; with COLO 205 colon, 1.28 µM; in the assay with KM12 colon it was 0.879 µM.

As to `COc1ccc(-c2nc(-c3ccc(C)cc3)cn3ccnc23)cc1`, the GI50 with M14 melanoma was 3.23 µM; with TK-10 renal, 20.6 µM; with SF-295 CNS it was 3.69 µM; with BT-549 breast, 26.4 µM; in the assay with CAKI-1 renal it was 4.78 µM; with UACC-257 melanoma, 9.54 µM. Also, the GI50 was 6.11 µM in the assay with DU-145 prostate, 2.87 µM with COLO 205 colon and 3.25 µM in the assay with KM12 colon. The TGI was > 50 µM with M14 melanoma; > 50 µM in the assay on TK-10 renal; > 50 µM in the assay on SF-295 CNS; > 50 µM in the assay on BT-549 breast; > 50 µM in the assay with CAKI-1 renal; 25.8 µM in the assay on UACC-257 melanoma. Besides, the concentration for total growth inhibition (TGI) in the assay with DU-145 prostate, with COLO 205 colon and in the assay on KM12 colon was > 50 µM each time.

In the case of `CCOC(=O)Oc1cc2c(c(OC)c1OC)-c1ccc(OC)c(=O)cc1C(NC(C)=O)CC2` (stereo not given), the TGI in the assay with M14 melanoma was > 70.6 µM; in the assay with SNB-75 CNS, > 16.9 µM; in the assay on TK-10 renal it was > 100 µM; in the assay on SF-295 CNS, 3.09 µM; in the assay with BT-549 breast, > 100 µM; in the assay with CAKI-1 renal, > 100 µM. Moreover, the total growth inhibition concentration (TGI) was > 100 µM in the assay on UACC-257 melanoma, 0.135 µM in the assay with COLO 205 colon and 1.68 µM in the assay with KM12 colon.

On to `COc1ccc(CN2c3ccccc3Sc3ccccc32)c(C(F)(F)F)c1`, for which the GI50 was 0.446 µM with M14 melanoma; 0.241 µM in the assay on SNB-75 CNS; 5.82 µM with TK-10 renal; 0.32 µM with SF-295 CNS; 3.12 µM in the assay on BT-549 breast; 1.53 µM in the assay on CAKI-1 renal. Further, the results for the GI50 with DU-145 prostate and in the assay with COLO 205 colon were 2.08 µM and 0.64 µM, respectively. Moreover, the concentration for total growth inhibition (TGI) was > 100 µM with M14 melanoma; > 100 µM in the assay with SNB-75 CNS; > 100 µM with TK-10 renal; 2.67 µM in the assay on SF-295 CNS; 31.9 µM in the assay with BT-549 breast; > 100 µM in the assay on CAKI-1 renal. Further, the total growth inhibition concentration (TGI) with DU-145 prostate was > 100 µM; in the assay on COLO 205 colon, 3.08 µM.

On to `Cc1csc2[n+]1-c1ccccc1N(C(=O)Nc1ccccc1)C(C)C2` (stereo not given), for which the GI50 was 43.7 µM with M14 melanoma; > 100 µM with TK-10 renal; > 100 µM with SF-295 CNS; > 100 µM in the assay with BT-549 breast; 84.9 µM in the assay with CAKI-1 renal; > 100 µM in the assay on UACC-257 melanoma. In addition, the GI50 in the assay with COLO 205 colon and in the assay on KM12 colon was > 100 µM each time. Moreover, the total growth inhibition concentration (TGI) in the assay with M14 melanoma, with TK-10 renal, with SF-295 CNS, in the assay with BT-549 breast, in the assay with CAKI-1 renal and in the assay on UACC-257 melanoma was > 100 µM throughout. Besides, the concentration for total growth inhibition (TGI) in the assay on COLO 205 colon and in the assay on KM12 colon was > 100 µM in each case.

Turning to `COc1ccc(Cc2coc3ccccc3c2=O)cc1OC`, the total growth inhibition concentration (TGI) was > 100 µM in the assay with M14 melanoma; > 100 µM with SNB-75 CNS; > 100 µM with TK-10 renal; > 100 µM with SF-295 CNS; > 100 µM in the assay with BT-549 breast; 49.5 µM with CAKI-1 renal. The concentration for total growth inhibition (TGI) in the assay with UACC-257 melanoma, with DU-145 prostate and with COLO 205 colon was > 100 µM in each case.

With `CCCCCCCCCCCCCC[N+](C)(C)CCCCCCCCCCCCCC`, the GI50 with TK-10 renal was 2.53 µM; in the assay on SF-295 CNS, 7.72 µM; in the assay on BT-549 breast it was 2.38 µM; with CAKI-1 renal it was 3.56 µM; in the assay with UACC-257 melanoma, 2.49 µM; in the assay on DU-145 prostate it was 3.42 µM. The TGI with TK-10 renal turned out to be 7.03 µM; with SF-295 CNS it was 37.7 µM; with BT-549 breast it was 5.47 µM; in the assay on CAKI-1 renal, 24.3 µM; in the assay with UACC-257 melanoma it was 8.61 µM; in the assay with DU-145 prostate it was 12.5 µM.
